# According to PMC3063124 (The Journal of neuroscience : the official journal of the …, 2011):
# Molecular target: GluN1/GluN2D (Rattus norvegicus, UniProt Q62645)
# Type: cell-based
# Settings: absence of QNZ46; continuous presence of glycine
# Sequence of GluN1/GluN2D (Q62645 28-1323, other chains not shown): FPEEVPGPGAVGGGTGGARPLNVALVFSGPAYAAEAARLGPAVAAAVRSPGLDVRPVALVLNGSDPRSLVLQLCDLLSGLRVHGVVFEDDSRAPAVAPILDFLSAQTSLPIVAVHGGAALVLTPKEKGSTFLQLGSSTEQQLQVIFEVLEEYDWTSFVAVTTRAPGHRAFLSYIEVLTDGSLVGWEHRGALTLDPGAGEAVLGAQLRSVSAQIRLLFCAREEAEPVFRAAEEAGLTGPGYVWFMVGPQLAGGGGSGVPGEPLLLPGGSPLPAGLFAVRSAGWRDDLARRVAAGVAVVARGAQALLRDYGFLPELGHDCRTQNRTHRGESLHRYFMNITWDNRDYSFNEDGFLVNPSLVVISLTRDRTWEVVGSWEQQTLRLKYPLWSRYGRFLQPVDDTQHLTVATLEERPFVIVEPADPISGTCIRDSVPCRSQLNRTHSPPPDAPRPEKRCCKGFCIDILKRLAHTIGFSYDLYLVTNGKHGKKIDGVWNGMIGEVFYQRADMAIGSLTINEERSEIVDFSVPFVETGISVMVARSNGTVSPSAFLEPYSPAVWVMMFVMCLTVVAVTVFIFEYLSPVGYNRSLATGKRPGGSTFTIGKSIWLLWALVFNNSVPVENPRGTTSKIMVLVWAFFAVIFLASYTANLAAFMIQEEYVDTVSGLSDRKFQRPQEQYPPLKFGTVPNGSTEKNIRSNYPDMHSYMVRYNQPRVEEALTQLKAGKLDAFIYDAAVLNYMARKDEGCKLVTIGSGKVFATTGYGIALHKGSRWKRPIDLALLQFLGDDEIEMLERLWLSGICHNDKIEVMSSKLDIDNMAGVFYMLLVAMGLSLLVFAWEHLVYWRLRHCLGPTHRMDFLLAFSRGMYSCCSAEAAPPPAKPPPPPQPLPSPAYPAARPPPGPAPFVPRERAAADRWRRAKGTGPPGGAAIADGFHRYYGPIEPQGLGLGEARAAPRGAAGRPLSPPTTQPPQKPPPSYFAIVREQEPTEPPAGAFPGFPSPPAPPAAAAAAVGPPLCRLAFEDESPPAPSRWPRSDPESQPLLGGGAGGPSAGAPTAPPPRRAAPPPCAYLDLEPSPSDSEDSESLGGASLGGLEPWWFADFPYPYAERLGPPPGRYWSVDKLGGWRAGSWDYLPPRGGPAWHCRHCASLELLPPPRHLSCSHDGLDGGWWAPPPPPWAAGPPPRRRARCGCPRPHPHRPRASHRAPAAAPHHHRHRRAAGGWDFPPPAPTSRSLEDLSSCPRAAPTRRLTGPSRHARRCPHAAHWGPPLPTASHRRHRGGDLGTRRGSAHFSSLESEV
smiles,measurement,value
"CN[C@H](CC(=O)O)C(=O)O [NMDA, N-methyl-D-aspartate, reference compound]",time constant for agonist deactivation (τweighted),92 ms
